In patent US8309557B2, “Pyrimidin-4-ylpropanedinitrile derivatives, processes for their preparation and their use as herbicides and plant growth regulators” (Bayer Intellectual Property GmbH, priority 2009, dated 2012):

What was measured:
Type in all cases: in vivo
[1] = system: Matricaria inodora; test: Herbicidal effect post-emergence, MATIN
Description: (§1) Seeds of mono- and dicotyledonous weed plants and crop plants are planted in wood-fiber pots in sandy loam, covered with earth and grown in a greenhouse under good growth conditions. 2 to 3 weeks after sowing, the test plants are treated in the single-leaf stage. The compounds according to the invention, formulated in the form of wettable powders (WP) or as emulsion concentrates (EC), are then sprayed onto the green plant parts as aqueous suspension or emulsion using an application rate of 600 to 800 l of water/ha (converted) with the addition of 0.2% by weight of wetting agent. After the test plants had been in the greenhouse for ca. 3 weeks under optimum growth conditions, the effect of the preparations is scored visually in comparison with untreated controls (herbicidal effect in percent (%): 100% effect=plants have died off, 0% effect=as control plants).

[2] = system: Polygonum (Fallopia) convolvulus; test: Herbicidal effect post-emergence, POLCO
Description: as §1

[3] = system: Abutilon theophrasti; test: Herbicidal effect post-emergence, ABUTH
Description: as §1

[4] = system: Amaranthus retroflexus; test: Herbicidal effect post-emergence, AMARE
Description: as §1

[5] = system: Viola tricolor; test: Herbicidal effect post-emergence, VIOTR
Description: as §1

[6] = system: Stellaria media; test: Herbicidal effect post-emergence, STEME
Description: as §1

[7] = system: Setaria viridis; test: Herbicidal effect pre-emergence, SETVI; details: 320 g/hectare, visual grading after 3 weeks vs untreated controls
Description: (§2) Seeds of mono- and dicotyledonous weed plants and crop plants are planted in wood-fiber pots in sandy loam and covered with earth. The compounds according to the invention, formulated in the form of wettable powders (WP) or as emulsion concentrates (EC), are then applied to the surface of the covering earth as aqueous suspension or emulsion at an application rate corresponding to 320 g/hectare at an application rate of 600 to 800 l of water/ha (converted) with the addition of 0.2% wetting agent.
(§3) Following treatment, the pots are placed in a greenhouse and kept under good growth conditions for the test plants. The visual grading of the damage to the test plants is carried out after a test time of 3 weeks in comparison to untreated controls (herbicidal effect in percent (%): 100% effect=plants have died off, 0% effect=as control plants).

[8] = system: Amaranthus retroflexus; test: Herbicidal effect pre-emergence, AMARE; details: 320 g/hectare, visual grading after 3 weeks vs untreated controls
Description: as §2, §3

[9] = system: Tripleurospermum inodorum; test: Herbicidal effect pre-emergence, MATIN; details: 320 g/hectare, visual grading after 3 weeks vs untreated controls
Description: as §2, §3

[10] = system: Veronica persica; test: Herbicidal effect pre-emergence, VERPE; details: 320 g/hectare, visual grading after 3 weeks vs untreated controls
Description: as §2, §3

[11] = system: Veronica persica; test: Herbicidal effect post-emergence, VERPE
Description: as §1

[12] = system: Echinochloa crus-galli; test: Herbicidal effect post-emergence, ECHCG
Description: as §1

[13] = system: Abutilon theophrasti; test: Herbicidal effect pre-emergence, ABUTH; details: 320 g/hectare, visual grading after 3 weeks vs untreated controls
Description: as §2, §3

[14] = system: Ipomoea purpurea; test: Herbicidal effect post-emergence, PHBPU
Description: as §1

[15] = system: Setaria viridis; test: Herbicidal effect post-emergence, SETVI
Description: as §1

[16] = system: Viola tricolor; test: Herbicidal effect pre-emergence, VIOTR; details: 320 g/hectare, visual grading after 3 weeks vs untreated controls
Description: as §2, §3

[17] = system: Ipomoea purpurea; test: Herbicidal effect pre-emergence, PHBPU; details: 320 g/hectare, visual grading after 3 weeks vs untreated controls
Description: as §2, §3

[18] = system: Lolium multiflorum; test: Herbicidal effect pre-emergence, LOLMU; details: 320 g/hectare, visual grading after 3 weeks vs untreated controls
Description: as §2, §3

Compound	Effect in % in respect of stated plant, MATIN [1] [%]	Effect in % in respect of stated plant, POLCO [2] [%]	Effect in % in respect of stated plant, ABUTH [3] [%]	Effect in % in respect of stated plant, AMARE [4] [%]	Effect in % in respect of stated plant, VIOTR [5] [%]	Effect in % in respect of stated plant, STEME [6] [%]	Effect in % in respect of stated plant, SETVI [7] [%]	Effect in % in respect of stated plant, AMARE [8] [%]	Effect in % in respect of stated plant, MATIN [9] [%]	Effect in % in respect of stated plant, VERPE [10] [%]	Effect in % in respect of stated plant, VERPE [11] [%]	Effect in % in respect of stated plant, ECHCG [12] [%]	Effect in % in respect of stated plant, ABUTH [13] [%]	Effect in % in respect of stated plant, PHBPU [14] [%]	Effect in % in respect of stated plant, SETVI [15] [%]	Effect in % in respect of stated plant, VIOTR [16] [%]	Effect in % in respect of stated plant, PHBPU [17] [%]	Effect in % in respect of stated plant, LOLMU [18] [%]
N#C[C-](C#N)c1nc(-c2ccc(Cl)cc2)nc(N)c1Cl.[Na+] [Ex. No. 304, Sodium [6-amino-5-chloro-2-(4-chlorophenyl)pyrimidin-4-yl](dicyano)methanide]	90	80	80	100	80	80	80	90	80	100	–	–	–	–	–	–	–	–
Cc1ccc(-c2nc(N)c(Cl)c(C(C#N)C#N)n2)cc1 [compound 12]	80	80	80	90	–	–	–	100	–	100	90	80	80	–	–	–	–	–
N#CC(C#N)c1nc(-c2ccc(Cl)cc2F)nc(N)c1Cl [compound 110]	90	95	–	90	90	90	80	100	–	100	90	80	–	80	80	90	–	–
Cc1ccc(-c2nc(N)c(Cl)c(C(C#N)C#N)n2)c(F)c1F [compound 202]	80	90	90	100	–	–	–	90	–	100	–	90	–	–	–	–	100	–
N#CC(C#N)c1nc(-c2ccc(Br)cc2F)nc(N)c1Cl [compound 208]	100	80	90	100	90	90	90	80	–	100	90	–	100	80	–	–	–	–
N#CC(C#N)c1nc(C2CC2)nc(N)c1F [compound 248]	80	–	–	80	–	80	–	–	80	90	90	–	–	–	–	–	80	–
CC(C)c1nc(N)c(Cl)c(C(C#N)C#N)n1 [compound 265]	90	90	80	100	–	90	–	–	–	–	90	–	–	100	–	–	–	–
CC(C)(C)c1nc(N)c(Cl)c(C(C#N)C#N)n1.N [compound 455]	–	–	–	–	–	–	–	–	–	–	–	–	–	–	–	100	–	80
